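Method: 48-hour compound exposure of cells in 96-well plates, five concentrations, linear interpolation of endpoints. The concentration for 50% growth inhibition is given as GI50.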 Active and inactive are the calls of the source. No stated cut-off is given here; in the data, active = GI50 up to about 1.1 µM and inactive = higher.
What was measured:
Assay in all cases: inhibition of tumour cell growth, NCI panel, 48 h
[1] = test system: SR
[2] = test system: IGROV-1
[3] = test system: COLO 205
[4] = test system: SK-MEL-5
[5] = test system: OVCAR-4
[6] = test system: MDA-N
[7] = test system: HCT-116
[8] = test system: OVCAR-8
[9] = test system: SK-MEL-28
[10] = test system: SW-620
[11] = test system: HL-60
[12] = test system: SK-OV-3
[13] = test system: HCC 2998
[14] = test system: HT-29
[15] = test system: MDA-MB-435
[16] = test system: SF-539
[17] = test system: Malme-3M
[18] = test system: SN12C
[19] = test system: KM12
[20] = test system: UACC-62
[21] = test system: ACHN
[22] = test system: OVCAR-5
[23] = test system: SF-268
[24] = test system: M14
[25] = test system: CCRF-CEM
[26] = test system: NCI-H23
[27] = test system: T47D
[28] = test system: U-251
[29] = test system: UACC-257
[30] = test system: NCI-H226
[31] = test system: RPMI-8226
[32] = test system: HOP-62
[33] = test system: HOP-92
[34] = test system: Hs-578T
[35] = test system: PC-3
[36] = test system: MOLT-4
[37] = test system: NCI/ADR-RES
[38] = test system: MDA-MB-231
[39] = test system: NCI-H460
[40] = test system: MCF7
[41] = test system: SNB-19
[42] = test system: CAKI-1
[43] = test system: RXF 393
[44] = test system: HCT-15
[45] = test system: DU-145
[46] = test system: OVCAR-3
[47] = test system: K562
[48] = test system: NCI-H522
[49] = test system: LOX IMVI
[50] = test system: EKVX
[51] = test system: SF-295
[52] = test system: 786-0
[53] = test system: TK-10

## O=C1Oc2cc3c(c4cccc1c24)O[C@H](c1ccccc1)[C@@H](c1ccccc1)[C@@H]3c1ccc(Cl)cc1
[1]
  GI50: 18.8 µM (inactive)
[2]
  GI50: 22.8 µM (inactive)
[3]
  GI50: > 100 µM (inactive)
[4]
  GI50: > 100 µM (inactive)
[5]
  GI50: 82 µM (inactive)
[6]
  GI50: > 100 µM (inactive)
[7]
  GI50: 31.8 µM (inactive)
[8]
  GI50: 16.2 µM (inactive)
[9]
  GI50: > 100 µM (inactive)
[10]
  GI50: > 100 µM (inactive)
[11]
  GI50: > 100 µM (inactive)
[12]
  GI50: 45.2 µM (inactive)
[13]
  GI50: > 100 µM (inactive)
[14]
  GI50: > 100 µM (inactive)
[15]
  GI50: 76.7 µM (inactive)
[16]
  GI50: 33.7 µM (inactive)
[17]
  GI50: 37.3 µM (inactive)
[18]
  GI50: 79.4 µM (inactive)
[19]
  GI50: > 100 µM (inactive)
[20]
  GI50: 19.3 µM (inactive)
[21]
  GI50: 26.7 µM (inactive)
[22]
  GI50: > 100 µM (inactive)
[23]
  GI50: 31.9 µM (inactive)
[24]
  GI50: 40.1 µM (inactive)
[25]
  GI50: 49 µM (inactive)
[26]
  GI50: 34 µM (inactive)
[27]
  GI50: 58.6 µM (inactive)
[28]
  GI50: 19.6 µM (inactive)
[29]
  GI50: > 100 µM (inactive)
[30]
  GI50: 76 µM (inactive)
[31]
  GI50: 58.1 µM (inactive)
[32]
  GI50: 18.2 µM (inactive)
[33]
  GI50: 28.8 µM (inactive)
[34]
  GI50: 88.7 µM (inactive)
[35]
  GI50: > 100 µM (inactive)
[36]
  GI50: 19.6 µM (inactive)
[37]
  GI50: > 100 µM (inactive)
[38]
  GI50: 18.3 µM (inactive)
[39]
  GI50: > 100 µM (inactive)
[40]
  GI50: > 100 µM (inactive)
[41]
  GI50: 29.4 µM (inactive)
[42]
  GI50: > 100 µM (inactive)
[43]
  GI50: 17.4 µM (inactive)
[44]
  GI50: > 100 µM
[45]
  GI50: > 100 µM (inactive)
[46]
  GI50: 36.8 µM (inactive)
[47]
  GI50: 46.1 µM (inactive)
[48]
  GI50: 38 µM (inactive)
[49]
  GI50: 68.4 µM (inactive)
[50]
  GI50: > 100 µM (inactive)
[51]
  GI50: 42.7 µM (inactive)
[52]
  GI50: 17.6 µM (inactive)
[53]
  GI50: 39.3 µM (inactive)

Reference: ChEMBL document CHEMBL1201862, “PubChem BioAssay data set” (2004)
